Data reported in ChEMBL document CHEMBL3885881, “DrugMatrix”.

Species on record: Rattus norvegicus
Assay: DrugMatrix - Regimen: Daily Repeat
Format: toxicity, organism-based, Sprague-Dawley
Parameters: regimen Daily Repeat, gender Male, age 6-8 weeks
Settings: in vivo, sc, route subcutaneous, […]; for ABSOLUTE BASOPHIL / ABSOLUTE EOSINOPHIL / ABSOLUTE LYMPHOCYTE / ABSOLUTE MONOCYTE / ABSOLUTE SEGMENTED NEUTROPHIL / BASOPHIL / EOSINOPHIL / ERYTHROCYTE COUNT / HEMATOCRIT / HEMOGLOBIN / LEUKOCYTE COUNT / LYMPHOCYTE / MEAN CORPUSCULAR HEMOGLOBIN / MEAN CORPUSCULAR HEMOGLOBIN CONCENTRATION / MEAN CORPUSCULAR VOLUME / MONOCYTE / NEUTROPHIL / NUCLEATED RED BLOOD CELLS / PLATELET COUNT: tissue Blood; for ALANINE AMINOTRANSFERASE / ALBUMIN / ALKALINE PHOSPHATASE / ASPARTATE AMINOTRANSFERASE / BLOOD UREA NITROGEN / CARBON DIOXIDE / CHLORIDE / CHOLESTEROL / CREATINE PHOSPHOKINASE / CREATININE / GLUCOSE / LACTATE DEHYDROGENASE / LIPASE / PHOSPHORUS / POTASSIUM / SODIUM / TOTAL BILIRUBIN / TOTAL PROTEIN / URIC ACID: tissue Plasma
[1] = 260 mg/kg, 72 h, dose level Low, time 3 day
[2] = 260 mg/kg, 120 h, dose level Low, time 5 day
[3] = 2600 mg/kg, 72 h, dose level High, time 3 day
[4] = 2600 mg/kg, 120 h, dose level High, time 5 day

With `c1ccc2sc(SSc3nc4ccccc4s3)nc2c1` [BENZOTHIAZYL DISULFIDE] the “ABSOLUTE BASOPHIL” value [1] was 0 CELLS/uL, the “ABSOLUTE EOSINOPHIL” value [1] was 108 CELLS/uL and the “ABSOLUTE LYMPHOCYTE” value [1] was 9435.33 CELLS/uL. The “ABSOLUTE MONOCYTE” value [1] was 328 CELLS/uL, the “ABSOLUTE SEGMENTED NEUTROPHIL” value [1] was 1062 CELLS/uL and the BASOPHIL [1] was 0%. For the same compound, the EOSINOPHIL [1] was 1%, the “ERYTHROCYTE COUNT” value [1] was 5.25 x10E6/uL and the HEMATOCRIT [1] was 33.03%. The HEMOGLOBIN [1] was 12.27 G/DL, the “LEUKOCYTE COUNT” value [1] was 10.93 x10E3/uL and the LYMPHOCYTE [1] was 86.33%. For the same compound, the “MEAN CORPUSCULAR HEMOGLOBIN” value [1] was 23.33 pg, the “MEAN CORPUSCULAR HEMOGLOBIN CONCENTRATION” value [1] was 37.13 G/DL and the “MEAN CORPUSCULAR VOLUME” value [1] was 62.87 fL. The MONOCYTE [1] was 3%, the NEUTROPHIL [1] was 9.67% and the “NUCLEATED RED BLOOD CELLS” value [1] was 0 /100WBC. For the same compound, the “PLATELET COUNT” value [1] was 1377.33 x10E3/uL, the “ALANINE AMINOTRANSFERASE” value [1] was 42 u/L and the ALBUMIN [1] was 3.87 G/DL. The “ALKALINE PHOSPHATASE” value [1] was 365.33 u/L, the “ASPARTATE AMINOTRANSFERASE” value [1] was 91.67 u/L and the “BLOOD UREA NITROGEN” value [1] was 16 mg/dL. For the same compound, the “CARBON DIOXIDE” value [1] was 26 mmol/L, the CHLORIDE [1] was 105.33 MEQ/L and the CHOLESTEROL [1] was 77.33 mg/dL. For the same compound, the “CREATINE PHOSPHOKINASE” value [1] was 411.33 u/L, the CREATININE [1] was 0.21 mg/dL and the GLUCOSE [1] was 149.33 mg/dL. For the same compound, the “LACTATE DEHYDROGENASE” value [1] was 600.33 u/L, the LIPASE [1] was 8.67 u/L and the PHOSPHORUS [1] was 12.73 mg/dL. For the same compound, the POTASSIUM [1] was 6.51 MEQ/L, the SODIUM [1] was 145.03 MEQ/L and the “TOTAL BILIRUBIN” value [1] was 0.17 mg/dL. For the same compound, the “TOTAL PROTEIN” value [1] was 5.4 G/DL, the “URIC ACID” value [1] was 1.47 mg/dL and the “ABSOLUTE BASOPHIL” value [2] was 0 CELLS/uL. The “ABSOLUTE EOSINOPHIL” value [2] was 214.33 CELLS/uL, the “ABSOLUTE LYMPHOCYTE” value [2] was 15055 CELLS/uL and the “ABSOLUTE MONOCYTE” value [2] was 283.33 CELLS/uL. The “ABSOLUTE SEGMENTED NEUTROPHIL” value [2] was 1280.67 CELLS/uL, the BASOPHIL [2] was 0% and the EOSINOPHIL [2] was 1.33%. The “ERYTHROCYTE COUNT” value [2] was 5.49 x10E6/uL, the HEMATOCRIT [2] was 34.87% and the HEMOGLOBIN [2] was 13.17 G/DL. For the same compound, the “LEUKOCYTE COUNT” value [2] was 16.83 x10E3/uL, the LYMPHOCYTE [2] was 89.33% and the “MEAN CORPUSCULAR HEMOGLOBIN” value [2] was 24.1 pg. The “MEAN CORPUSCULAR HEMOGLOBIN CONCENTRATION” value [2] was 37.8 G/DL, the “MEAN CORPUSCULAR VOLUME” value [2] was 63.7 fL and the MONOCYTE [2] was 1.67%. The NEUTROPHIL [2] was 7.67%, the “NUCLEATED RED BLOOD CELLS” value [2] was 0.67 /100WBC and the “PLATELET COUNT” value [2] was 1489.67 x10E3/uL. For the same compound, the “ALANINE AMINOTRANSFERASE” value [2] was 39 u/L, the ALBUMIN [2] was 3.93 G/DL and the “ALKALINE PHOSPHATASE” value [2] was 463.33 u/L. For the same compound, the “ASPARTATE AMINOTRANSFERASE” value [2] was 92.67 u/L, the “BLOOD UREA NITROGEN” value [2] was 18.33 mg/dL and the “CARBON DIOXIDE” value [2] was 28.33 mmol/L. For the same compound, the CHLORIDE [2] was 105.33 MEQ/L, the CHOLESTEROL [2] was 70.67 mg/dL and the “CREATINE PHOSPHOKINASE” value [2] was 529 u/L. For the same compound, the CREATININE [2] was 0.19 mg/dL, the GLUCOSE [2] was 169 mg/dL and the “LACTATE DEHYDROGENASE” value [2] was 102.33 u/L. For the same compound, the LIPASE [2] was 8 u/L, the PHOSPHORUS [2] was 12.13 mg/dL and the POTASSIUM [2] was 6.59 MEQ/L. The SODIUM [2] was 147.43 MEQ/L, the “TOTAL BILIRUBIN” value [2] was 0.2 mg/dL and the “TOTAL PROTEIN” value [2] was 5.63 G/DL. The “URIC ACID” value [2] was 1.63 mg/dL, the “ABSOLUTE BASOPHIL” value [3] was 0 CELLS/uL and the “ABSOLUTE EOSINOPHIL” value [3] was 50.67 CELLS/uL. The “ABSOLUTE LYMPHOCYTE” value [3] was 11758.67 CELLS/uL, the “ABSOLUTE MONOCYTE” value [3] was 266.67 CELLS/uL and the “ABSOLUTE SEGMENTED NEUTROPHIL” value [3] was 857.33 CELLS/uL. For the same compound, the BASOPHIL [3] was 0%, the EOSINOPHIL [3] was 0.33% and the “ERYTHROCYTE COUNT” value [3] was 5.31 x10E6/uL. The HEMATOCRIT [3] was 32.77%, the HEMOGLOBIN [3] was 12.3 G/DL and the “LEUKOCYTE COUNT” value [3] was 12.93 x10E3/uL. The LYMPHOCYTE [3] was 91.33%, the “MEAN CORPUSCULAR HEMOGLOBIN” value [3] was 23.2 pg and the “MEAN CORPUSCULAR HEMOGLOBIN CONCENTRATION” value [3] was 37.53 G/DL. The “MEAN CORPUSCULAR VOLUME” value [3] was 61.7 fL, the MONOCYTE [3] was 2% and the NEUTROPHIL [3] was 6.33%. For the same compound, the “NUCLEATED RED BLOOD CELLS” value [3] was 0 /100WBC, the “PLATELET COUNT” value [3] was 1463.67 x10E3/uL and the “ALANINE AMINOTRANSFERASE” value [3] was 24.33 u/L. The ALBUMIN [3] was 3.73 G/DL, the “ALKALINE PHOSPHATASE” value [3] was 327.67 u/L and the “ASPARTATE AMINOTRANSFERASE” value [3] was 90.67 u/L. For the same compound, the “BLOOD UREA NITROGEN” value [3] was 16 mg/dL, the “CARBON DIOXIDE” value [3] was 24 mmol/L and the CHLORIDE [3] was 104 MEQ/L. For the same compound, the CHOLESTEROL [3] was 76.33 mg/dL, the “CREATINE PHOSPHOKINASE” value [3] was 376.67 u/L and the CREATININE [3] was 0.16 mg/dL. For the same compound, the GLUCOSE [3] was 151.67 mg/dL, the “LACTATE DEHYDROGENASE” value [3] was 543.33 u/L and the LIPASE [3] was 8.33 u/L. The PHOSPHORUS [3] was 12 mg/dL, the POTASSIUM [3] was 6.59 MEQ/L and the SODIUM [3] was 145.13 MEQ/L. For the same compound, the “TOTAL BILIRUBIN” value [3] was 0.3 mg/dL, the “TOTAL PROTEIN” value [3] was 5.2 G/DL and the “URIC ACID” value [3] was 1.63 mg/dL. The “ABSOLUTE BASOPHIL” value [4] was 0 CELLS/uL, the “ABSOLUTE EOSINOPHIL” value [4] was 0 CELLS/uL and the “ABSOLUTE LYMPHOCYTE” value [4] was 11990.67 CELLS/uL. For the same compound, the “ABSOLUTE MONOCYTE” value [4] was 262 CELLS/uL, the “ABSOLUTE SEGMENTED NEUTROPHIL” value [4] was 914 CELLS/uL and the BASOPHIL [4] was 0%. For the same compound, the EOSINOPHIL [4] was 0%, the “ERYTHROCYTE COUNT” value [4] was 5.81 x10E6/uL and the HEMATOCRIT [4] was 36.07%. For the same compound, the HEMOGLOBIN [4] was 13.33 G/DL, the “LEUKOCYTE COUNT” value [4] was 13.17 x10E3/uL and the LYMPHOCYTE [4] was 91%. The “MEAN CORPUSCULAR HEMOGLOBIN” value [4] was 22.97 pg, the “MEAN CORPUSCULAR HEMOGLOBIN CONCENTRATION” value [4] was 36.97 G/DL and the “MEAN CORPUSCULAR VOLUME” value [4] was 62.1 fL. The MONOCYTE [4] was 2%, the NEUTROPHIL [4] was 7% and the “NUCLEATED RED BLOOD CELLS” value [4] was 0 /100WBC. The “PLATELET COUNT” value [4] was 1293.33 x10E3/uL, the “ALANINE AMINOTRANSFERASE” value [4] was 31 u/L and the ALBUMIN [4] was 3.6 G/DL. The “ALKALINE PHOSPHATASE” value [4] was 266.33 u/L, the “ASPARTATE AMINOTRANSFERASE” value [4] was 72 u/L and the “BLOOD UREA NITROGEN” value [4] was 14.67 mg/dL. The “CARBON DIOXIDE” value [4] was 26.33 mmol/L, the CHLORIDE [4] was 105.67 MEQ/L and the CHOLESTEROL [4] was 83 mg/dL. For the same compound, the “CREATINE PHOSPHOKINASE” value [4] was 133 u/L, the CREATININE [4] was 0.23 mg/dL and the GLUCOSE [4] was 156 mg/dL. The “LACTATE DEHYDROGENASE” value [4] was 67.67 u/L, the LIPASE [4] was 8.67 u/L and the PHOSPHORUS [4] was 12.23 mg/dL. The POTASSIUM [4] was 6.11 MEQ/L, the SODIUM [4] was 145.9 MEQ/L and the “TOTAL BILIRUBIN” value [4] was 0.1 mg/dL. For the same compound, the “TOTAL PROTEIN” value [4] was 5.63 G/DL and the “URIC ACID” value [4] was 2 mg/dL.
